Measured values taken from ChEMBL document CHEMBL1129203, “Structure-activity relationships in 3-oxo-1,4-benzodiazepine-2-acetic acid GPIIb/IIIa antagonists. The 2-benzazepine series” (Bioorg Med Chem Lett, 1996).

Key:
Homo sapiens = species: Homo sapiens; assay: In vitro inhibition of platelet aggregation in human platelet-rich plasma induced by ADP; format: functional
[1] = molecular target: Integrin alpha-IIb/beta-3 (Homo sapiens, UniProt P05106+P08514); assay: In vitro binding affinity against human alpha IIb beta-3 integrin; format: protein-complex assay
Sequence of Integrin alpha-IIb/beta-3 (P05106 27-788 limits assumed): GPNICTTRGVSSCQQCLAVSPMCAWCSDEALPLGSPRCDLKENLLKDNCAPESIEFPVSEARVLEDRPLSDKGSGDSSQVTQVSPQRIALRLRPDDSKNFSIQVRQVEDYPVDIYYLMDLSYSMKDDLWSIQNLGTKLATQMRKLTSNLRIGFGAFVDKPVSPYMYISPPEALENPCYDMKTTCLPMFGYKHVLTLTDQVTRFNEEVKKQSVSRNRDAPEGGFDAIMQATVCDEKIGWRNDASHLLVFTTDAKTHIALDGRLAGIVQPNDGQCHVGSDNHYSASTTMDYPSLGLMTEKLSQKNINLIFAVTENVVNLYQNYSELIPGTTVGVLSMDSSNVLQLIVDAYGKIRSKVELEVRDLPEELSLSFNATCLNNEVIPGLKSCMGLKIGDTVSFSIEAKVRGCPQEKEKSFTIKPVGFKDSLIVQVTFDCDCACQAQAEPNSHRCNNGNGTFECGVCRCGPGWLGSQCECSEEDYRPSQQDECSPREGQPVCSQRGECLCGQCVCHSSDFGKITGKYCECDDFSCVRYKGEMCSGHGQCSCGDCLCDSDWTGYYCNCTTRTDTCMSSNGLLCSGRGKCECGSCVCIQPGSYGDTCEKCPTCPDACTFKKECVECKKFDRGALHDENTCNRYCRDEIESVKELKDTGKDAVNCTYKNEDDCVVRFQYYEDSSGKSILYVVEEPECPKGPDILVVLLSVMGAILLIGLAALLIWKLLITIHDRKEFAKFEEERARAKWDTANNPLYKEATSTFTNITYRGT
Sequence of Integrin alpha-IIb/beta-3 (P08514 32-887 limits assumed): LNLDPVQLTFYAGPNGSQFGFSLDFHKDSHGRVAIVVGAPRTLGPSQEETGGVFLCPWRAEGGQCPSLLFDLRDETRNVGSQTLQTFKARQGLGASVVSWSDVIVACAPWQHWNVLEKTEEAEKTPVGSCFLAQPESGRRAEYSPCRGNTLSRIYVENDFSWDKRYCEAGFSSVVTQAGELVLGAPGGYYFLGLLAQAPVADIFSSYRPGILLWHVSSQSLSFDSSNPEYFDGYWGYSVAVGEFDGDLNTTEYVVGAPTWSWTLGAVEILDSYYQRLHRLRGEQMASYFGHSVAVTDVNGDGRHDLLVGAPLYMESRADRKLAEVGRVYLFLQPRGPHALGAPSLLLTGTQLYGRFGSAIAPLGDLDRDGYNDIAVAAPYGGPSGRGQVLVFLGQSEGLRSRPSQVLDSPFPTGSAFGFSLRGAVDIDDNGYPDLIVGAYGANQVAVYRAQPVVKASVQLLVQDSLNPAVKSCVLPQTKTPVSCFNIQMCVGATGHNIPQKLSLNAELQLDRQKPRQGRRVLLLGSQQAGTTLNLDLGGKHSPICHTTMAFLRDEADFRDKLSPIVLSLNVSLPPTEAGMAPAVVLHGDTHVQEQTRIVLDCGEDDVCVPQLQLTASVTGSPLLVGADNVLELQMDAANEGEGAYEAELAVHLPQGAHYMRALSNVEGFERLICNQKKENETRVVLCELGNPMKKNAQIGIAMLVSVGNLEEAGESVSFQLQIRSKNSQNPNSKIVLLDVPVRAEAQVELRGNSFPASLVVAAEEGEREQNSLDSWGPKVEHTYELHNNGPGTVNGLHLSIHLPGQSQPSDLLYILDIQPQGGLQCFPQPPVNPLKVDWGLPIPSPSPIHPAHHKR
Sequence of Integrin alpha-IIb/beta-3 (P08514 891-1039 limits assumed): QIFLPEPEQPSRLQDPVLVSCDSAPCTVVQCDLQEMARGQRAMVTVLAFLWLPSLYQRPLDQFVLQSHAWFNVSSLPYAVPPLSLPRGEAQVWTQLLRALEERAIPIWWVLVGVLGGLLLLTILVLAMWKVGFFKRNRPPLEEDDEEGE

## N=C(N)c1ccc(NC(=O)c2ccc3c(c2)NC(CC(=O)O)C(=O)N(CCc2ccccc2)C3)cc1 (configuration not stated)
Homo sapiens
  IC50: 8 nM

## CN(CCC1CCNCC1)C(=O)c1ccc2c(c1)CC(CC(=O)O)C(=O)N(CCc1cccs1)C2 (configuration not stated)
[1]
  Ki: 2.5 nM
Homo sapiens
  IC50: 18 nM

## CN(CCC1CCNCC1)C(=O)c1ccc2c(c1)CC(CC(=O)O)C(=O)N(CCCCCc1ccccc1)C2 (configuration not stated)
[1]
  Ki: 2 nM
Homo sapiens
  IC50: 8 nM

## CN(CCC1CCNCC1)C(=O)c1ccc2c(c1)CC(CC(=O)O)C(=O)N(C)C2 (configuration not stated)
[1]
  Ki: 1.5 nM
Homo sapiens
  IC50: 33 nM

## CC(C)N1Cc2ccc(C(=O)N(C)CCC3CCNCC3)cc2CC(CC(=O)O)C1=O (configuration not stated)
[1]
  Ki: 2 nM
Homo sapiens
  IC50: 37 nM

## CN(CCC1CCNCC1)C(=O)c1ccc2c(c1)CC(CC(=O)O)C(=O)N(C1CCCCC1)C2 (configuration not stated)
[1]
  Ki: 1.3 nM
Homo sapiens
  IC50: 49 nM

## CN(CCC1CCNCC1)C(=O)c1ccc2c(c1)CC(CC(=O)O)C(=O)NC2 (configuration not stated)
[1]
  Ki: 3.2 nM
Homo sapiens
  IC50: 71 nM

## CN(CCC1CCNCC1)C(=O)c1ccc2c(c1)CC(CC(=O)O)C(=O)N(CCc1ccccc1)C2 (configuration not stated)
[1]
  Ki: 3 nM
Homo sapiens
  IC50: 13 nM

## CN(CCC1CCNCC1)C(=O)c1ccc2c(c1)CC(CCC(=O)O)C(=O)N(CCc1ccccc1)C2 (configuration not stated)
[1]
  Ki: 650 nM
Homo sapiens
  IC50: 7790 nM

## CN(CCC1CCNCC1)C(=O)c1ccc2c(c1)CC(CC(=O)O)C(=O)N(Cc1ccccc1)C2 (configuration not stated)
[1]
  Ki: 1 nM
Homo sapiens
  IC50: 36 nM

## CN(CCC1CCNCC1)C(=O)c1ccc2c(c1)CC(CC(=O)O)C(=O)N(CCC1CCCCC1)C2 (configuration not stated)
[1]
  Ki: 2 nM
Homo sapiens
  IC50: 27 nM

## CC(C)CCN1Cc2ccc(C(=O)N(C)CCC3CCNCC3)cc2CC(CC(=O)O)C1=O (configuration not stated)
[1]
  Ki: 1.5 nM
Homo sapiens
  IC50: 32 nM

## CN(C(=O)c1ccc2c(c1)CC(CC(=O)O)C(=O)N(CCc1ccccc1)C2)c1ccc(C(=N)N)cc1 (configuration not stated)
[1]
  Ki: 1.5 nM
Homo sapiens
  IC50: 12 nM

## CN(CCC1CCNCC1)C(=O)c1ccc2c(c1)CC(CC(=O)O)C(=O)N(CCc1ccc(F)cc1)C2 (configuration not stated)
[1]
  Ki: 1.7 nM
Homo sapiens
  IC50: 27 nM

## CN(CCC1CCNCC1)C(=O)c1ccc2c(c1)CC(CC(=O)O)C(=O)N(CCC(C)(C)C)C2 (configuration not stated)
[1]
  Ki: 2 nM
Homo sapiens
  IC50: 27 nM

## CCCCN1Cc2ccc(C(=O)N(C)CCC3CCNCC3)cc2CC(CC(=O)O)C1=O (configuration not stated)
[1]
  Ki: 1.5 nM
Homo sapiens
  IC50: 31 nM

## CN(C(=O)c1ccc2c(c1)NC(CC(=O)O)C(=O)N(CCc1ccccc1)C2)c1ccc(C(=N)N)cc1 (configuration not stated)
Homo sapiens
  IC50: 28 nM
